Laboratory results from patent US9862702B2, “Processes for the preparation of pesticidal compounds” (Dow AgroSciences LLC, priority 2013, dated 2018).
Counter-ions that a name gives are not always drawn.

Assays:
[1] = system: Sweetpotato Whitefly Crawler (Bemisia tabaci) (BEMITA); test: Bioassays on Sweetpotato Whitefly Crawler, foliar spray on infested cotton plants; format: in vivo; conditions: 200 ppm test solution sprayed on cotton leaves until runoff, live nymphs counted after 8-9 days at 82° F., 50% RH, read-out: BEMITA rating (% Control of Mortality, Abbott-corrected)
Text: Example B Bioassays on Sweetpotato Whitefly Crawler (Bemisia tabaci) (BEMITA.)
The sweetpotato whitefly, Bemisia tabaci (Gennadius), has been recorded in the United States since the late 1800s. In 1986 in Florida, Bemisia tabaci became an extreme economic pest. Whiteflies usually feed on the lower surface of their host plant leaves. From the egg hatches a minute crawler stage that moves about the leaf until it inserts its microscopic, threadlike mouthparts to feed by sucking sap from the phloem. Adults and nymphs excrete honeydew (largely plant sugars from feeding on phloem), a sticky, viscous liquid in which dark sooty molds grow. Heavy infestations of adults and their progeny can cause seedling death, or reduction in vigor and yield of older plants, due simply to sap removal. The honeydew can stick cotton lint together, making it more difficult to gin and therefore reducing its value. Sooty mold grows on honeydew-covered substrates, obscuring the leaf and reducing photosynthesis, and reducing fruit quality grade. It transmitted plant-pathogenic viruses that had never affected cultivated crops and induced plant physiological disorders, such as tomato irregular ripening and squash silverleaf disorder. Whiteflies are resistant to many formerly effective pesticides.
Cotton plants grown in 3-inch pots, with 1 small (3-5 cm) true leaf, were used at test substrate. The plants were placed in a room with whitefly adults. Adults were allowed to deposit eggs for 2-3 days. After a 2-3 day egg-laying period, plants were taken from the adult whitefly room. Adults were blown off leaves using a hand-held Devilbliss sprayer (23 psi). Plants with egg infestation (100-300 eggs per plant) were placed in a holding room for 5-6 days at 82° F. and 50% RH for egg hatch and crawler stage to develop. Four cotton plants were used for each treatment. Compounds (2 mg) were dissolved in 1 mL of acetone solvent, forming stock solutions of 2000 ppm. The stock solutions were diluted 10× with 0.025% Tween 20 in water to obtain a test solution at 200 ppm. A hand-held Devilbliss sprayer was used for spraying a solution to both sides of cotton leaf until runoff. Reference plants (solvent check) were sprayed with the diluent only. Treated plants were held in a holding room for 8-9 days at approximately 82° F. and 50% RH prior to grading. Evaluation was conducted by counting the number of live nymphs per plant under a microscope.

[2] = system: Green Peach Aphid ("GPA") (Myzus persicae) (MYZUPE); test: Bioassays on Green Peach Aphid (GPA), foliar spray on infested cabbage seedlings; format: in vivo; conditions: 72 h, 200 ppm test solution sprayed on cabbage leaves until runoff, live aphids counted after three days at about 25° C., read-out: MYZUPE rating (% Control of Mortality, Abbott-corrected)
Text: Example A Bioassays on Green Peach Aphid (“GPA”) (Myzus persicae) (MYZUPE.)
GPA is the most significant aphid pest of peach trees, causing decreased growth, shriveling of leaves, and the death of various tissues. It is also hazardous because it acts as a vector for the transport of plant viruses, such as potato virus Y and potato leafroll virus to members of the nightshade/potato family Solanaceae, and various mosaic viruses to many other food crops. GPA attacks such plants as broccoli, burdock, cabbage, carrot, cauliflower, daikon, eggplant, green beans, lettuce, macadamia, papaya, peppers, sweet potatoes, tomatoes, watercress and zucchini among other plants. GPA also attacks many ornamental crops such as carnations, chrysanthemum, flowering white cabbage, poinsettia and roses. GPA has developed resistance to many pesticides.
Several molecules disclosed herein were tested against GPA using procedures described below.
Cabbage seedling grown in 3-in pots, with 2-3 small (3-5 cm) true leaves, were used as test substrate. The seedlings were infested with […] (wingless adult and nymph stages) one day prior to chemical application. Four posts with individual seedlings were used for each treatment. Test compounds (2 mg) were dissolved in 2 mL of acetone/methanol (1:1) solvent, forming stock solutions of 1000 ppm test compound. The stock solutions were diluted 5× with 0.025% Tween 20 in water to obtain the solution at 200 ppm test compound. A hand-held aspirator-type sprayer was used for spraying a solution to both sides of the cabbage leaves until runoff. Reference plants (solvent check) were sprayed with the diluent only containing 20% by volume acetone/methanol (1:1) solvent. Treated plants were held in a holding room for three days at approximately 25° C. and ambient relative humidity (RH) prior to grading. Evaluation was conducted by counting the number of live aphids per plant under a microscope. Percent Control was measured by using Abbott's correction formula (W. S. Abbott, “A Method of Computing the Effectiveness of an Insecticide” J. Econ. Entomol 18 (1925), pp. 265-267) as follows. Corrected % Control=100*(X−Y)/X • where • X=No. of live aphids on solvent check plants and • Y=No. of live aphids on treated plants
The results are indicated in the table entitled “Table 1: GPA (MYZUPE) and sweetpotato whitefly-crawler (BEMITA) Rating Table”.

SMILES | mortality at 200 ppm [1] | mortality at 200 ppm [2] | melting point
CCOC(=O)C1CC(Cl)=NN1c1cccnc1 (stereo not drawn) [Compound 19.6, Ethyl 3-chloro-1-(pyridin-3-yl)-4,5-dihydro-1H-pyrazole-5-carboxylate] | 0 to 80% | 0 to 80% | 
COC(=O)C1CC(Cl)=NN1c1cccnc1 (stereo not drawn) [Compound 6c, Methyl 3-chloro-1-(pyridin-3-yl)-4,5-dihydro-1H-pyrazole-5-carboxylate] | 80 to 100% | 0 to 80% | 
COC(=O)c1cc(Cl)nn1-c1cccnc1 [Compound 6d, Methyl 3-chloro-1-(pyridin-3-yl)-1H-pyrazole-5-carboxylate] | < 0% | 0 to 80% | 
N#CC1CC(Cl)=NN1c1cccnc1 (stereo not drawn) [Compound 6b, 3-Chloro-1-(pyridine-3-yl)-4,5-dihydro-1H-pyrazole-5-carbonitrile] | < 0% | 0 to 80% | 
O=C(O)c1cc(Cl)nn1-c1cccnc1 [Compound 6e, 3-Chloro-1-(pyridine-3-yl)-1H-pyrazole-5-carboxylic Acid Hydrochloride] | < 0% | 0 to 80% | 
CCOC(=O)C1CC(=O)NN1c1cccnc1 (stereo not drawn) [Compound 18.6, Ethyl 5-oxo-2-(pyridin-3-yl)pyrazolidine-3-carboxylate] | 0 to 80% | 0 to 80% | 
O=[N+]([O-])c1cn(-c2cccnc2)nc1Cl [Compound 5c, 3-(3-Chloro-4-nitro-1H-pyrazol-1-yl)pyridine] |  |  | 141 to 143 °C
O=C(O)/C=N/Nc1cccnc1 [Compound 6a, (E)-2-((2-Pyridin-3-yl)hydrazono)acetic Acid Hydrochloride] | 0 to 80% | 0 to 80% | 
